From patent publication US12030896B2, “PIKfyve inhibitors” (Mayo Foundation for Medical Education and Research, priority 2018, dated 2024) come the findings set out here.

Data set [1] concerns the target PIKfyve (Homo sapiens, UniProt Q9Y2I7). As to the kind of experiment: Kinase panel screen: inhibition of PIKfyve. It is filed as binding. To be noted: 50 nM. Here is the method: No other kinase was blocked to that extent by 50 nM of Example 1, indicating its high degree of selectivity.
In contrast, 50 nM Apilimod inhibited two kinases to 1% or 10%, and 3 kinases to 35% of control. To examine non-specific binding at higher concentrations, Example 1, Example 3, and Apilimod were tested at 5000 nM. […] PIKfyve is represented at the bottom left of each dendrogram.

Data set [2] is described as follows: Solubility. It is filed as physicochemical. As to the method:
The compound has a molecular weight of 428.5. It is soluble in DMSO. In addition, solutions of at least 10 mg/ml can be prepared using a mixture of DMSO (10%), cremaphor (20%), and water (70%).

For data set [3], the system named is Human lymphoma cell lines. As to the kind of experiment: Killing of human lymphoma cell lines. It is filed as cell-based. The settings on record: 72 hours. Here is the method:
Human lymphoma cell lines were incubated for 72 hours with various concentrations of the compound, and survival determined by cell counting or by ATP assay, as shown in FIG. 7. In the lymphoma experiments, RPMI media (Life Technologies) was used as the base formulation for “complete” media. Trypsin was not needed for these non-adherent cell lines. For the “cell-counting” data, cells were pipetted up and down to evenly disburse, then 10 μL of the suspension was counted using an Accuri C6 cytometer, using on forward and side scatter to gate on a viable population.

Data set [4] concerns E2409 murine lymphoma cells. As to the kind of experiment: E2409 lymphoma flank tumor survival study. It is filed as in vivo, Nude mice. To be noted: 1 mg daily IP injection vs vehicle only; p<0.02. Here is the method:
Nude mice were injected in the flank with 1 million E2409 murine lymphoma cells, and allowed to grow for 4 days, at which point a small detectable lump was observed on each mouse. Mice were injected daily by IP injection with 100 μl of vehicle (10% dmso, 20% cremaphor, 70% water) with or without 1 mg of the test compound. Mice were euthanized when tumor size exceeded 1500 mm^3.

Where only a bound is given, the exact number is not on record here.

PIKfyve, sequence (Q9Y2I7 whole entry): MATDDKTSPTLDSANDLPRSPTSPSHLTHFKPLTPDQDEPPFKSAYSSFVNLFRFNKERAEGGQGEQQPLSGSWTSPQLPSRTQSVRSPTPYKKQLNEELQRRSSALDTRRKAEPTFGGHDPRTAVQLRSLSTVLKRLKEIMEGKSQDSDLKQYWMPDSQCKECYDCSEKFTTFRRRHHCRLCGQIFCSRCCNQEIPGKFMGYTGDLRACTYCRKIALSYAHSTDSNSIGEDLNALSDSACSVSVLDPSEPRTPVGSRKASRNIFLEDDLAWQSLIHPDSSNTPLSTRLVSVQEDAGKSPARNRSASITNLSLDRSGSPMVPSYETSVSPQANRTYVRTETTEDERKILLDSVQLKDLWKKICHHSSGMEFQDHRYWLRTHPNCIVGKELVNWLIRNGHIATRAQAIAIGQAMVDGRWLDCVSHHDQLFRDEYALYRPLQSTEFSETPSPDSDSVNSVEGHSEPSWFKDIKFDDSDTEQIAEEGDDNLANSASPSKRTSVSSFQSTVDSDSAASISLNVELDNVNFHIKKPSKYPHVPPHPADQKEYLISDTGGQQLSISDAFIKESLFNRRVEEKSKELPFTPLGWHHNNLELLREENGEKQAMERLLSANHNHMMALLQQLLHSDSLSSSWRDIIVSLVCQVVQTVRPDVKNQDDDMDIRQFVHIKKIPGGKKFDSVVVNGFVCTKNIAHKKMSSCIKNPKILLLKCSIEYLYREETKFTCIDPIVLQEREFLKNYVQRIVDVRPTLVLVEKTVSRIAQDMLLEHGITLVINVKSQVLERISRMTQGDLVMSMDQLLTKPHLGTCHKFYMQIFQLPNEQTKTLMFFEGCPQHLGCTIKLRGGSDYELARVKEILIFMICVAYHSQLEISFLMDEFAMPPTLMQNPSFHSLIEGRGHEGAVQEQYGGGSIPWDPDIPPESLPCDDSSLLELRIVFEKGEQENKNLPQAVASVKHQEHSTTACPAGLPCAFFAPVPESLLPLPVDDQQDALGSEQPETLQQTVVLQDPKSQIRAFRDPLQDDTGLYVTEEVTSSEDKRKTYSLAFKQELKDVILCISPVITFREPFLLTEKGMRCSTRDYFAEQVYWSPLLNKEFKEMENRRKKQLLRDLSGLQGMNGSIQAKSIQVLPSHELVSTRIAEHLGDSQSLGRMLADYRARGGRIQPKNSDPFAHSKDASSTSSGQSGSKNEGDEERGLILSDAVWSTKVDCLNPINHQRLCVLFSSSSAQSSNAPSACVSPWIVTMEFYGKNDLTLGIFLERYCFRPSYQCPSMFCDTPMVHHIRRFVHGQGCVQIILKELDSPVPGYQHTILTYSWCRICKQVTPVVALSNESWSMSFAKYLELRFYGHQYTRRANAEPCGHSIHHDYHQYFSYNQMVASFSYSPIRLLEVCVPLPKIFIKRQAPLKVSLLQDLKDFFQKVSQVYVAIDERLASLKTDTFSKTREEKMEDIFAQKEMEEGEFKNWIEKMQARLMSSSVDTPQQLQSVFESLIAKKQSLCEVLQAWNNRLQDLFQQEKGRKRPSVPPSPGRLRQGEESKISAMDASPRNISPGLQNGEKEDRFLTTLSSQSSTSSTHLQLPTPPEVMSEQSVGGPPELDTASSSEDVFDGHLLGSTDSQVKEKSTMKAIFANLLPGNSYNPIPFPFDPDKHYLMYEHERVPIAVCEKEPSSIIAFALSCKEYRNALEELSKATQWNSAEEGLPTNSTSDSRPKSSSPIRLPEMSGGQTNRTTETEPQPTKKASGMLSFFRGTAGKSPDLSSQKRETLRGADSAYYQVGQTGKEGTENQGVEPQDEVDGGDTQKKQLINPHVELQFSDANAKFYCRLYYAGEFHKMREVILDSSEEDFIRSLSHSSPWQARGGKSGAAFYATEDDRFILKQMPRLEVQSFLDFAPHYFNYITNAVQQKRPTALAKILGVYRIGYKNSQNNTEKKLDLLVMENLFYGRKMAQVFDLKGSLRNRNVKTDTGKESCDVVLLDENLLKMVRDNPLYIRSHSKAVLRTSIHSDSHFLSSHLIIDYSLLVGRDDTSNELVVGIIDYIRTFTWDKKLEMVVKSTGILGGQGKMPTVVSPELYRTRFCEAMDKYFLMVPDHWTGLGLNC

Broadly, the inhibition is the percentage by which the read-out fell short of the control. Read a high inhibition as strong suppression. `Cc1ccc(Nc2nc(N/N=C/c3c[nH]c4ccccc34)nc(N3CCOCC3)n2)cc1` [Example 1, (E)-4-(2-((1H-indol-3-yl)methylene)hydrazinyl)-6-morpholino-N-(p-tolyl)-1,3,5-triazin-2-amine] gave an inhibition at 0.05 µM in data set [1] of more than 99%. For the same compound, the “solubility in DMSO” value in data set [2] (DMSO) is reported as “soluble”. In data set [2] (DMSO (10%), cremaphor (20%), and water (70%)), the “concentration of solutions that can be prepared” value is reported as “at least 10 mg/ml”. Further, the cell killing result in data set [3] is “killing”. Besides, in data set [4], the survival entry is reported as “prolonged survival”.
